{"source": "patent US20210379106A1", "about": "“OXABICYCLOHEPTANES FOR ENHANCING CAR T CELL FUNCTION” (Lixte Biotechnology, Inc., priority 2018, published 2021)", "key": {"[1]": {"test_system": "cell lines from a variety of human solid tumors", "conditions": "cited from earlier work"}, "solid tumor": {"test_system": "solid tumor", "conditions": "largest phase 1 trial, cited from earlier work"}, "PP2A": {"molecular_target": "PP2A (Homo sapiens, UniProt P67775)", "sequence (P67775 whole entry)": "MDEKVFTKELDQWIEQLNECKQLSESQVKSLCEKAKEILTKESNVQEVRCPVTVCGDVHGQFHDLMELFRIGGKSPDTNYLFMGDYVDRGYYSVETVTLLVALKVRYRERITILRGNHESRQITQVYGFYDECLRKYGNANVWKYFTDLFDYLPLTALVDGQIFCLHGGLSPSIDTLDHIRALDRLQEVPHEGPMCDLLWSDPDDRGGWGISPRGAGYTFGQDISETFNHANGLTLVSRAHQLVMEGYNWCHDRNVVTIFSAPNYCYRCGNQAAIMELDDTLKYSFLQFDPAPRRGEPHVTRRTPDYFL", "conditions": "cited from earlier work"}, "CD19 CAR T cells": {"test_system": "CD19 CAR T cells", "assay": "IFNγ intracellular staining / flow cytometry of CD19CAR T cells after co-culture with CD19+ tumor cells", "type": "cell-based", "conditions": "for percentage of CAR+/CD8+/INFγ+: 0.5 μM LB-100, 1.0 μg/mL Nivo", "protocol": "FIG. 1. Generation of CD19 CAR T cells PBMC from healthy donor were activated with CD3/CD28 beads and transduced with lentivirus encoding second generation of CD19CAR containing costimulatory signaling CD28. After 14 days of ex vivo expansion, percentages of CD8 and CAR positive T cells were determined by flow cytometry.\n(§1) FIG. 2. […] Post treatment, 0.1×10^6 CD19 CART cells were then co-cultured with 0.1×10^6 different CD19+ tumor cells for 24 hours followed by surface staining of CAR and CD8 and intracellular staining of IFN-γ. Percentages of IFNγ+CD8+ CAR T cells in gated CAR positive population are presented.\nFIG. 3. […] Post treatment, 0.1×10^6 CD19CAR T cells were then co-cultured with 0.1×10^6 CD19+Daudi lymphoma cells for 24 hours followed by surface staining of CAR and CD8 and intracellular staining of IFN-γ. Percentages of IFN-γ+CD8+ CAR T cells (A) and FACS plots (B) in gated CAR positive population are presented.\nas §1, with “4.” for “2.”, “CD19CAR T” for “CD19 CART”, “IFN-γ. Myeloid leukemic cells (KG1a) were used as negative control.” for “IFN-γ.”, “IFN-γ+CD8+” for “IFNγ+CD8+”\nWe assessed the effects of LB-100 and Nivo on CD19 CART cell function. Propagated CD19CAR T cells were stimulated with dynal beads coated with antibody against CD19 (FMC63) at 1:1 ratio for five days and cultured under the following conditions: CD19CAR T cell alone, CD19CAR+ 0.5 μM LB-100, CD19CAR+ 1.0 μg/mL Nivo, and CD19CAR with combination of LB-100 and Nivo. Drugs were supplemented into the culture every other day. Functional assay was performed six days after treatment. The cells were then co-cultured with the different CD19+ ALL cells SupB15 and different lymphoma Daudi and Raji cells overnight. Cells were then stained for Interferon-gamma (IFNγ) followed by flow cytometry analysis. Acute myeloid leukemia (AML) cells KG1a were used as negative controls. […] To test the antitumor activity of the combinatorial therapy in vivo we established an acute lymphoid leukemia (ALL) model by inoculating SupB15-GFP-ffluc cells into NSG mice, 5 days after tumor engraftment, mice were treated with CD19CAR T cells by intravenous injection, along with intraperitoneally injections of LB100 (4 μg/mouse), Nivo (200 μgm/mouse) or LB100+Nivo every other day as combination therapy."}}}
{"smiles": "CCN1CCCC1CNC(=O)c1cc(S(=O)(=O)CC)c(NC)cc1OC", "note": "(stereo not shown) [LB-102]", "values": [{"measurement": "proliferation of cell lines", "setting": "[1]", "value": "inhibit proliferation"}]}
{"smiles": "C[C@@](O)(/C=C/[C@H]1CC=CC(=O)O1)[C@@H](C[C@@H](O)\\C=C/C=C\\C=C\\CO)OP(=O)(O)O", "note": "[fostriecin, Fostriecin]", "values": [{"measurement": "dose-limiting toxicity (DLT)", "setting": "solid tumor; 46 solid tumor patients", "value": "without dose-limiting toxicity"}, {"measurement": "disease stability, share of solid tumor patients", "setting": "solid tumor; 16 of 46 patients", "value": 34.8, "unit": "%"}]}
{"smiles": "O=C1OC(=O)[C@H]2[C@@H]1[C@@H]1CC[C@H]2O1", "note": "[norcantharidin]", "values": [{"measurement": "inhibition of PP2A", "setting": "PP2A", "value": "potent inhibitorsof PP2A"}]}
{"smiles": "C[C@@]12C(=O)OC(=O)[C@]1(C)[C@H]1CC[C@@H]2O1", "note": "[Cantharidin]", "values": [{"measurement": "inhibition of PP2A", "setting": "PP2A", "value": "potent inhibitor of PP2A"}]}
{"smiles": "CN1CCN(C(=O)C2C(C(=O)O)[C@H]3CC[C@@H]2O3)CC1", "note": "(stereo partly shown) [LB-100]", "values": [{"measurement": "effector function of CD19CAR T cells (IFNγ+CD8+ CAR T cells)", "setting": "CD19 CAR T cells; FIG. 2, CD19 antibody coated beads, different concentrations of LB100 on days 1, 3 and 5, different CD19+ tumor cells 24 hours", "value": "improves effector function of CD19CAR T cells in a dose dependent manner"}, {"measurement": "percentage of CAR+/CD8+/INFγ+", "setting": "CD19 CAR T cells; co-cultured with Daudi cells overnight, CD19 antibody bead stimulation", "value": 10.99, "unit": "%"}, {"measurement": "percentage of CAR+/CD8+/INFγ+", "setting": "CD19 CAR T cells; co-cultured with Raji cells overnight, CD19 antibody bead stimulation", "value": 10.30, "unit": "%"}, {"measurement": "percentage of CAR+/CD8+/INFγ+", "setting": "CD19 CAR T cells; co-cultured with SupB15 cells overnight, CD19 antibody bead stimulation", "value": 10.14, "unit": "%"}, {"measurement": "percentage of CAR+/CD8+/INFγ+", "setting": "CD19 CAR T cells; corresponding treatment, co-cultured with KG1A AML cells (negative control)", "value": 6.33, "unit": "%"}, {"measurement": "percentage of CAR+/CD8+/INFγ+", "setting": "CD19 CAR T cells; corresponding treatment, media alone (no tumor cells)", "value": 7.28, "unit": "%"}, {"measurement": "proliferation of cell lines", "setting": "[1]", "value": "inhibit proliferation"}, {"measurement": "inhibition of PP2A", "setting": "PP2A", "value": "potent inhibitor of PP2A"}]}
